From US11213567B2, “ZAG-derived peptide and use thereof” (L&C Bio Co., LTD., priority 2017, dated 2022)

Tests used:
IL-6 = experiment: Atopic dermatitis efficacy test using macrophages (RAW 264.7): IL-6 released after LPS, ELISA; format: cell-based, mouse; parameters: key to RAW 264.7 (mouse) IL-6: •: have statistical significance, determining as effective, compared with the positive control; settings: for IL-6 concentration released in cell culture medium: Example 2-1, FIG. 2A, RAW 264.7, 1 μg/mL 24 hours, LPS 0.1 μg/mL 24 hours, compared with positive control (Pos); for RAW 264.7 (mouse) IL-6: 1 μg/mL for 24 hours, then LPS 0.1 μg/mL 24 hours
Procedure: (§1) To select an amino acid sequence corresponding to a key active site of ZAG having efficacy in the alleviation of atopic symptoms from 18 peptide candidate groups, an atopic dermatitis efficacy test was performed. Five types of immune-related cells were treated with ZAG peptide candidate groups (Z1-Z18, SEQ ID NOs: 1 to 18, respectively) and the ZAG protein (Z0, SEQ ID NOs: 19) at a concentration of 1 μg/mL for 24 hours, and then treated with a stimulator suitable for each cell line for the listed time to confirm an immune response. The experiment was performed with a group treated with only a stimulator as a positive control experimental group, and a group treated with only a vehicle without a stimulator as a negative control experimental group (Table 2: Efficacy test method for atopic dermatitis). An inflammatory response-related enzyme used as a stimulator is produced by immune cells, and histamine initiates an inflammatory response. The immune cells migrating to a damaged region release cytokines such as tumor necrosis factor-α (TNF-α) and interleukin-6 (IL-6) to directly lyse foreign invasive substances or collect other immune cells to initiate an inflammatory response. An efficacy test using inflammation-inducing materials, interferon-γ and skin inflammation-related factor CCL-17/thymus- and activation-regulated chemokine (TARC) was also performed to confirm an immune response.
Macrophages (RAW 264.7 cells) were treated with a stimulator LPS at a concentration of 0.1 μg/mL for 24 hours, and then the concentration of IL-6 released in a cell culture medium was confirmed by ELISA assay.
(§2) Various types of immune cells were treated with each of Z20mer-1, Z20mer-2, Z20mer-3, Z15mer-1, Z15mer-2, Z15mer-3 and Z15mer-4 at a concentration of 1 μg/mL for 24 hours, and then treated with a stimulator suitable for each cell line for the listed time to confirm an immune response. The atopic dermatitis efficacy test method was performed by the same method as described in Example 1 and Table 2.
(§3) The experiment was performed with experimental groups: 1) negative control: vehicle-treated group (Neg), 2) positive control: a group treated with only a stimulator (Pos), and 3) experimental group: groups treated with a stimulator and ZAG3 or a ZAG3-derived oligopeptide (Z20mer-1, Z20mer-2, Z20mer-3, Z15mer-1, Z15mer-2, Z15mer-3 or Z15mer-4). Concentrations were measured from cell culture by ELISA.
Macrophages (RAW 264.7 cells) were treated with a stimulator LPS at a concentration of 0.1 μg/mL for 24 hours, and then a concentration of IL-6 released in a cell culture medium was confirmed by ELISA assay.

Histamine = experiment: Atopic dermatitis efficacy test using mast cells (RBL-2H3): histamine released after PMA and A23187, ELISA; format: cell-based, rat; parameters: key: •: have statistical significance, determining as effective, compared with the positive control; settings: 1 μg/mL for 24 hours, then PMA 1 μg/mL, A23187 1 μg/mL 12 hours
Procedure: as §1
Mast cells (RBL-2H3) were treated with 1 μg/mL of PMA and 1 μg/mL of A23187 as stimulators for 12 hours, and a concentration of histamine released in a cell culture medium was confirmed by ELISA assay.
as §2, §3
Mast cells (RBL-2H3) were treated with 1 μg/mL of PMA and 1 μg/mL of A23187 as simulators for 12 hours, and then a concentration of histamine released in a cell culture medium was confirmed by ELISA assay. As compared with the positive control (Pos), in all of the oligopeptide-treated groups, the histamine release was reduced (FIG. 2B).

CCL17/TARC = experiment: Atopic dermatitis efficacy test using keratinocytes (HaCaT): CCL17/TARC released after TNF-α and IFN-γ, ELISA; format: cell-based, human; parameters: key to HaCaT (human) CCL17/TARC: •: have statistical significance, determining as effective, compared with the positive control; settings: for CCL17/TARC concentration released in cell culture medium: Example 2-3, FIG. 2C, HaCaT, 1 μg/mL 24 hours, TNF-α 0.4 μg/mL and IFN-γ 0.4 μg/mL 24 hours, compared with positive control (Pos); for HaCaT (human) CCL17/TARC: 1 μg/mL for 24 hours, then TNF-α 0.4 μg/mL, IFN-γ 0.4 μg/mL 24 hours
Procedure: as §1
Keratinocytes (HaCaT cells) were treated with 0.4 μg/mL of TNF-α and 0.4 μg/mL of IFN-γ as stimulators for 24 hours, and then a concentration of CCL17/TARC released in a cell culture medium was confirmed by ELISA assay.
as §2, §3

IgE = experiment: Atopic dermatitis efficacy test using B lymphocytes (RPMI 1788): IgE released after LPS, ELISA; format: cell-based, human; parameters: key: •: have statistical significance, determining as effective, compared with the positive control; settings: then LPS 0.1 μg/mL 24 hours
Procedure: as §1
B lymphocytes (RPMI 1788) were treated with 0.1 μg/mL of LPS as a stimulator for 24 hours, and a concentration of IgE released in a cell culture medium was confirmed by ELISA assay.
as §2, §3
B lymphocytes (RPMI 1788) were treated with 0.1 μg/mL of LPS as a stimulator for 24 hours, and then a concentration of IgE released in a cell culture medium was confirmed by ELISA assay. As compared with the positive control (Pos), in all of the oligopeptide-treated groups, IgE was reduced (FIG. 2D).

IL-4 = experiment: Atopic dermatitis efficacy test using T lymphocytes: IL-4 released after IL-2, ELISA; format: cell-based, human; parameters: key to T lymphocyte (human) IL-4: •: have statistical significance, determining as effective, compared with the positive control; settings: for IL-4: Example 2-5, FIG. 2E, compared with positive control (Pos); for IL-4 / IL-4 concentration released in cell culture medium: T lymphocytes, 1 μg/mL 24 hours; for T lymphocyte (human) IL-4: 1 μg/mL for 24 hours, then IL-2 50 ng/mL 12 hours; for IL-4 concentration released in cell culture medium: Example 1-5, FIG. 1E, IL-2 50 ng/mL 12 hours
Procedure: as §1
An atopic dermatitis efficacy test using T lymphocytes was performed with six peptide candidate groups (Z3, Z4, Z5, Z12, Z14, and Z15), which were determined to have efficacy from the results of Examples 1-1 to 1-4 described above. T lymphocytes were treated with 50 ng/mL of IL-2 as a stimulator for 12 hours, and a concentration of IL-4 released in a cell culture medium was confirmed by ELISA assay.
as §2, §3
An experiment was performed on T lymphocytes using the target peptides selected through the previous experiment. As compared with the positive control (Pos), in all of the oligopeptide-treated groups (Z20mer-1, Z20mer-2, Z20mer-3, Z15mer-1, Z15mer-2, Z15mer-3, and Z15mer-4), IL-4 was reduced (FIG. 2E).

[1] = Table 5, 1 μg/mL for 24 hours, vs positive control
[2] = Table 3, 1 μg/mL for 24 hours, vs stimulator only

## Z15mer-3: ZAG3-derived oligopeptide, SEQ ID NO. 25: KAREDIFMETLKDIV (ZAG protein-derived peptide)
IL-6
  IL-6 concentration released in cell culture medium: significantly decreased
IL-6; Table 5, vs positive control
  RAW 264.7 (mouse) IL-6: •
Histamine; Table 5, vs positive control
  RBL-2H3 (rat) Histamine: •
CCL17/TARC
  CCL17/TARC concentration released in cell culture medium: significantly decreased
CCL17/TARC; Table 5, vs positive control
  HaCaT (human) CCL17/TARC: •
IgE; [1]
  B lymphocyte (human) IgE: •
IL-4
  IL-4: reduced
IL-4; Table 5, vs positive control
  T lymphocyte (human) IL-4: •

## Z3: ZAG protein-derived peptide, SEQ ID NO. 3: EDWKQDSQLQKAREDIFMETLKDIVEYYND (ZAG protein-derived peptide)
IL-6
  IL-6 concentration released in cell culture medium: significantly decreased
IL-6; Table 3, vs stimulator only
  RAW 264.7 (mouse) IL-6: •
Histamine; Table 3, vs stimulator only
  RBL-2H3 (rat) Histamine: •
CCL17/TARC
  CCL17/TARC concentration released in cell culture medium: significantly decreased
CCL17/TARC; Table 3, vs stimulator only
  HaCaT (human) CCL17/TARC: •
IgE; [2]
  B lymphocyte (human) IgE: •
IL-4
  IL-4 concentration released in cell culture medium: significantly decreased
IL-4; Table 3, vs stimulator only
  T lymphocyte (human) IL-4: •

## Z14: ZAG protein-derived peptide, SEQ ID NO. 14: IFMETLKDIVEYYNDSNGSHVLQGRFGCEI (ZAG protein-derived peptide)
IL-6; Table 3, vs stimulator only
  RAW 264.7 (mouse) IL-6: •
Histamine; Table 3, vs stimulator only
  RBL-2H3 (rat) Histamine: •
CCL17/TARC; Table 3, vs stimulator only
  HaCaT (human) CCL17/TARC: •
IgE; [2]
  B lymphocyte (human) IgE: •
IL-4
  IL-4 concentration released in cell culture medium: significantly decreased
IL-4; Table 3, vs stimulator only
  T lymphocyte (human) IL-4: •

## Z15mer-4: ZAG3-derived oligopeptide, SEQ ID NO. 26: IFMETLKDIVEYYND (ZAG protein-derived peptide)
IL-6
  IL-6 concentration released in cell culture medium: significantly decreased
IL-6; Table 5, vs positive control
  RAW 264.7 (mouse) IL-6: •
Histamine; Table 5, vs positive control
  RBL-2H3 (rat) Histamine: •
CCL17/TARC
  CCL17/TARC concentration released in cell culture medium: significantly decreased
CCL17/TARC; Table 5, vs positive control
  HaCaT (human) CCL17/TARC: •
IgE; [1]
  B lymphocyte (human) IgE: •
IL-4
  IL-4: reduced
IL-4; Table 5, vs positive control
  T lymphocyte (human) IL-4: •

## Z7: ZAG protein-derived peptide, SEQ ID NO. 7: LDRQDPPSVVVTSHQAPGEKKKLKCLAYDF (ZAG protein-derived peptide)
IL-6; Table 3, vs stimulator only
  RAW 264.7 (mouse) IL-6: •
Histamine; Table 3, vs stimulator only
  RBL-2H3 (rat) Histamine: •
CCL17/TARC; Table 3, vs stimulator only
  HaCaT (human) CCL17/TARC: •
IgE; [2]
  B lymphocyte (human) IgE: •

## Z5: ZAG protein-derived peptide, SEQ ID NO. 5: GKDYIEFNKEIPAWVPFDPAAQITKQKWEA (ZAG protein-derived peptide)
IL-6; Table 3, vs stimulator only
  RAW 264.7 (mouse) IL-6: •
Histamine; Table 3, vs stimulator only
  RBL-2H3 (rat) Histamine: •
CCL17/TARC; Table 3, vs stimulator only
  HaCaT (human) CCL17/TARC: •
IgE; [2]
  B lymphocyte (human) IgE: •
IL-4
  IL-4 concentration released in cell culture medium: significantly decreased
IL-4; Table 3, vs stimulator only
  T lymphocyte (human) IL-4: •

## Z4: ZAG protein-derived peptide, SEQ ID NO. 4: SNGSHVLQGRFGCEIENNRSSGAFWKYYYD (ZAG protein-derived peptide)
IL-6; Table 3, vs stimulator only
  RAW 264.7 (mouse) IL-6: •
Histamine; Table 3, vs stimulator only
  RBL-2H3 (rat) Histamine: •
CCL17/TARC; Table 3, vs stimulator only
  HaCaT (human) CCL17/TARC: •
IgE; [2]
  B lymphocyte (human) IgE: •
IL-4
  IL-4 concentration released in cell culture medium: significantly decreased
IL-4; Table 3, vs stimulator only
  T lymphocyte (human) IL-4: •

## Z6: ZAG protein-derived peptide, SEQ ID NO. 6: EPVYVQRAKAYLEEECPATLRKYLKYSKNI (ZAG protein-derived peptide)
IL-6; Table 3, vs stimulator only
  RAW 264.7 (mouse) IL-6: •
Histamine; Table 3, vs stimulator only
  RBL-2H3 (rat) Histamine: •
CCL17/TARC; Table 3, vs stimulator only
  HaCaT (human) CCL17/TARC: •
IgE; [2]
  B lymphocyte (human) IgE: •

## Z8: ZAG protein-derived peptide, SEQ ID NO. 8: YPGKIDVHWTRAGEVQEPELRGDVLHNGNG (ZAG protein-derived peptide)
IL-6; Table 3, vs stimulator only
  RAW 264.7 (mouse) IL-6: •
Histamine; Table 3, vs stimulator only
  RBL-2H3 (rat) Histamine: •
CCL17/TARC; Table 3, vs stimulator only
  HaCaT (human) CCL17/TARC: •
IgE; [2]
  B lymphocyte (human) IgE: •

B1: Z0: ZAG protein, entire sequence of 298 amino acids (GenBank: AAH05306.1; SEQ ID NO: 19) (protein, listed as Homo sapiens)
chain: MVRMVPVLLSLLLLLGPAVPQENQDGRYSLTYIYTGLSKHVEDVPAFQALGSLNDLQFFRYNSKDRKSQPMGLWRQVEGMEDWKQDSQLQKAREDIFMETLKDIVEYYNDSNGSHVLQGRFGCEIENNRSSGAFWKYYYDGKDYIEFNKEIPAWVPFDPAAQITKQKWEAEPVYVQRAKAYLEEECPATLRKYLKYSKNILDRQDPPSVVVTSHQAPGEKKKLKCLAYDFYPGKIDVHWTRAGEVQEPELRGDVLHNGNGTYQSWVVVAVPPQDTAPYSCHVQHSSLAQPLVVPWEAS
IL-6; Table 3, vs stimulator only
  RAW 264.7 (mouse) IL-6: •
Histamine; Table 3, vs stimulator only
  RBL-2H3 (rat) Histamine: •
CCL17/TARC; Table 3, vs stimulator only
  HaCaT (human) CCL17/TARC: •
IgE; [2]
  B lymphocyte (human) IgE: •
IL-4; Table 3, vs stimulator only
  T lymphocyte (human) IL-4: •
